Results reported in patent US20080206744A1, “Functional Genomics and Gene Trapping in Haploid or Hypodiploid Cells” (priority 2004, published 2008).

Test system: palmitoylation of GAP43:GFP in MDCK cells
Assay: Localization of the palmitoylation reporter GAP43:GFP at the plasma membrane, by microscopy and HTM algorithm
Format: cell-based
Details: for effect on palmitoylation / PM localization of GAP43:GFP: MDCK cells transiently transfected with GAP43:GFP, incubation in 100 μM 2BP
From the text: FIGS. 2A-2D provide characterization of the reporter of S-palmitoylation. […] Cells in FIGS. 2B, 2C and 2D are representative of many having the same morphology.
FIGS. 5A-5D illustrate the simple case of quantifying whether or not GAP43:GFP is on the PM or in the cytoplasm using the HTM algorithm. In this analysis, MDCK cells (the same images as presented in FIGS. 2A-2D), transiently transfected with GFP alone are presented in FIG. 5A; transiently transfected with GAP43:GFP are presented in FIG. 5B; and transiently transfected with GAP43:GFP in the presence of 100 μM 2BP are presented in FIG. 5C.
FIG. 6 presents a quantitative analysis of the time course of translocation of GAP43:GFP from the plasma membrane in response to 100 μM 2BP: residence half life of palmitoylation. MDCK cells stably expressing GAP43:GFP were exposed to 100 μM 2BP for 6 hours. During this time, the same field of view of cells was imaged repeatedly in two channels Hoechst/nucleus (see FIG. 6A) and GFP/PM (see FIG. 6B) on the EIDAQ100 (the three images: 6A, 6B and 6C are at time 0). The PM mask (green lines) defined by the program is shown in FIG. 6C; the nucleus is delimited by red lines. By determining the average fluorescence intensity of the area defined by the PM mask (see FIG. 6D), PM labeling was reduced by 80% from the maximum (or starting) density during the 6 hour period.
This algorithm is able to make a simple binary decision of whether GAP43:GFP is on the PM or in the cytoplasm (see FIG. 5) as well as fine incremental determinations (see FIG. 6) of the quantity of fluorescence on the PM, thereby extending the capability beyond what is necessary to score the primary screen for trapped genes. Two important questions are answered here. Data in FIGS. 5A-5D illustrate that the algorithm is sufficient to ensure success in a screen to find genes critical in the pathway for palmitoylation of the reporter in an ICR-2A reporter cell line.

For CCCCCCCCCCCCCCC(Br)C(=O)O (stereo not drawn) [2BP, 2-bromopalmitate], the “reduction of PM labeling (average fluorescence intensity of the area defined by the PM mask) from the maximum (starting) density” value (MDCK cells stably expressing GAP43:GFP, 100 μM 2BP, 6 hour period, EIDAQ100 imaging) was 80%, the “effect on palmitoylation / PM localization of GAP43:GFP” value was “localization to the PM has been inhibited” and the “effect on palmitoylation / PM localization of GAP43:GFP” value (listed as 2-bromopalmitate) was “palmitoylation is inhibited”.
